# According to patent US20260176302A1, “SARS-CoV-2 Binding Polypeptide” (Leyden Laboratories B.V., priority 2022, published 2026):
# Tested on: SARS-CoV-2 B.1.351 variant
# Format: in vivo, Mouse (Mus musculus)
sequence,measurement,setting,value
IINPRGDGTRYAQKFQG [SEQ ID NO: 082],survival time vs control group (log-rank test),"[…], control median survival 7 days",significant improvement in survival time
same,clinical signs (score 0-4),"mouse, in vivo",No clinical signs
same,survival proportion at day 21,"mouse, in vivo",100%
same,change in bodyweight (AUC) / weight loss vs control group,"mouse, in vivo, listed as test polypeptide",significant reduction in weight loss
